Tests used:
[1] = target: T1, binding of His-XIAP(BIR2)-avi fusion protein to GST-RIPK2 fusion protein (RIPK2/XIAP) (Homo sapiens, UniProt O43353); experiment: RIPK2-XIAP binding competition PPI assay (TR-FRET); conditions: RIPK2/XIAP binding competition PPI assay; for Emax: Amax, read-out: PPI Amax bin; for IC50: read-out: PPI IC50 bin
T1 construct: made in house; host or cells: baculovirus infected Sf9 cells
In short: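 Compounds (in DMSO, 100-fold stock) incubated 120 min at 23 °C with 1 nM GST-RIPK2 (aa 1-310) and 25 nM His-XIAP(BIR2 aa 152-231)-avi, plus anti-His-XL665 and anti-GST-Tb, in pH 7.5 Tris buffer. Read-out: 665/520 nm emission ratio. Normalized to no-inhibitor (0%) and 50 nM GSK583 (−100%); Amax binned A–D.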

[2] = target: T2, GST-RIPK2 fusion protein (human RIPK2, amino acids 1-310) (Homo sapiens, UniProt O43353); experiment: RIPK2 binding competition assay (TR-FRET, Tracer 199 displacement); conditions: 10 nM Tracer 199, 1 nM GST-RIPK2, read-out: RIPK2 IC50
T2 construct: made in house; host or cells: baculovirus infected Sf9 cells
In short: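 IC50 derived from the TR-FRET emission ratio (665/620 nm, 337 nm excitation), normalized with no-inhibitor and no-enzyme controls. Incubation 45 min at 22 °C, pH 7.5 Tris buffer, with final 10 nM tracer, 1 nM Sf9-expressed GST-RIPK2 fragment (aa 1-310) and 0.5 nM Tb-labelled anti-GST.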

[3] = tested on: NF-κB pathway (SEAP) in THP1-Dual cells; experiment: THP-1 Dual cell SEAP assay (L18-MDP stimulated); assay type: cell-based; conditions: Homo sapiens, THP1-Dual, read-out: NF-κB THP1 IC50 bin
In short: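 IC50 values derive from non-linear regression of % inhibition, calculated against DMSO/L18-MDP-treated wells after media-only subtraction. NF-κB SEAP activity was read at OD 620-655 nm (QUANTI-Blue, 2 h, 37 °C) from supernatants of THP1-Dual cells. Cells had been compound-treated 30 min before overnight (20-24 h) stimulation with 10 ng/mL final L18-MDP.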

T2 sequence (O43353 1-310): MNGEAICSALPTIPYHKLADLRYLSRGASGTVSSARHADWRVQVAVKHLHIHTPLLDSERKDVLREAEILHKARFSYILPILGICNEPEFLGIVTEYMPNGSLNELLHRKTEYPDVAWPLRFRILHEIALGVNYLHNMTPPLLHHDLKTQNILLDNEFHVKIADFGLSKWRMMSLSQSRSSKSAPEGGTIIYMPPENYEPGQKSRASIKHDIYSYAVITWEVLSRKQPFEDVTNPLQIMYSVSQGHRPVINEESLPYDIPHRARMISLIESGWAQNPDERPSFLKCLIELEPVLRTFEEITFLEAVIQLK
T1 sequence (O43353 1-310 limits assumed): as the sequence (O43353 1-310) above

CC(C)(C)S(=O)(=O)c1cn2c(-c3cc(F)c(N)nc3F)cnc2cc1OCC1(CO)COC1 [Example 49, (3-(((3-(6-amino-2,5-difluoropyridin-3-yl)-6-(tert-butylsulfonyl)imidazo[1,2-a]pyridin-7-yl)oxy)methyl)oxetan-3-yl)methanol]
Emax [1]: > 80%
IC50 [1]: 2.5 to 20 nM
IC50 [2]: 2.5 to 20 nM
IC50 [3]: 250 to 1000 nM

Cc1c(-c2cnc3cc(OCCO)c(S(=O)(=O)C(C)(C)C)cn23)cnc(N)c1F [Example 50, 2-((3-(6-amino-5-fluoro-4-methylpyridin-3-yl)-6-(tert-butylsulfonyl)imidazo[1,2-a]pyridin-7-yl)oxy)ethan-1-ol]
Emax [1]: 55 to 80%
IC50 [1]: > 20 nM
IC50 [2]: > 20 nM
IC50 [3]: > 1000 nM

Cc1nc(N)c(F)cc1-c1cnc2cc(OCCO)c(S(=O)(=O)C(C)(C)C)cn12 [Example 51, 2-((3-(6-amino-5-fluoro-2-methylpyridin-3-yl)-6-(tert-butylsulfonyl)imidazo[1,2-a]pyridin-7-yl)oxy)ethan-1-ol]
Emax [1]: < 30%
IC50 [1]: > 20 nM
IC50 [2]: > 20 nM
IC50 [3]: > 1000 nM

CC(C)(C)S(=O)(=O)c1cn2c(-c3cc4cc[nH]c4nc3F)cnc2cc1OCCO [Example 52, 2-((6-(tert-butylsulfonyl)-3-(6-fluoro-1H-pyrrolo[2,3-b]pyridin-5-yl)imidazo[1,2-a]pyridin-7-yl)oxy)ethan-1-ol]
Emax [1]: > 80%
IC50 [1]: < 1 nM
IC50 [2]: < 1 nM
IC50 [3]: < 50 nM

CC(C)(C)S(=O)(=O)c1cn2c(-c3cnc4[nH]ccc4c3)cnc2cc1OCCO [Example 53, 2-((6-(tert-butylsulfonyl)-3-(1H-pyrrolo[2,3-b]pyridin-5-yl)imidazo[1,2-a]pyridin-7-yl)oxy)ethan-1-ol]
Emax [1]: > 80%
IC50 [1]: 1 to 2.5 nM
IC50 [2]: < 1 nM
IC50 [3]: 50 to 250 nM

CC(C)(C)S(=O)(=O)c1cn2c(-c3cc(F)c(N)nc3F)cnc2cc1OCC(F)(F)CO [Example 54, 3-((3-(6-amino-2,5-difluoropyridin-3-yl)-6-(tert-butylsulfonyl)imidazo[1,2-a]pyridin-7-yl)oxy)-2,2-difluoropropan-1-ol]
Emax [1]: > 80%
IC50 [1]: 2.5 to 20 nM
IC50 [2]: 1 to 2.5 nM
IC50 [3]: 50 to 250 nM

CC(C)(C)S(=O)(=O)c1cn2c(-c3cc(F)c(N)nc3F)cnc2cc1OCC(O)CO (centres unmarked) [Example 55, 3-((3-(6-amino-2,5-difluoropyridin-3-yl)-6-(tert-butylsulfonyl)imidazo[1,2-a]pyridin-7-yl)oxy)propane-1,2-diol]
Emax [1]: > 80%
IC50 [1]: 2.5 to 20 nM
IC50 [2]: 2.5 to 20 nM
IC50 [3]: 250 to 1000 nM

CC(C)(C)S(=O)(=O)c1cn2c(-c3cc(F)c(N)nc3F)cnc2cc1OCC1(CO)CC1 [Example 56, (1-(((3-(6-amino-2,5-difluoropyridin-3-yl)-6-(tert-butylsulfonyl)imidazo[1,2-a]pyridin-7-yl)oxy)methyl)cyclopropyl)methanol]
Emax [1]: > 80%
IC50 [1]: 2.5 to 20 nM
IC50 [2]: 2.5 to 20 nM
IC50 [3]: 50 to 250 nM

CC(C)(C)S(=O)(=O)c1cn2c(-c3cc(F)c(N)nc3F)cnc2cc1OCC(CO)C(F)(F)F (centres unmarked) [Example 57, 2-(((3-(6-amino-2,5-difluoropyridin-3-yl)-6-(tert-butylsulfonyl)imidazo[1,2-a]pyridin-7-yl)oxy)methyl)-3,3,3-trifluoropropan-1-ol]
Emax [1]: > 80%
IC50 [1]: 2.5 to 20 nM
IC50 [2]: 2.5 to 20 nM
IC50 [3]: 250 to 1000 nM

COc1cc2ncc(-c3ccc(N)nc3F)n2cc1S(=O)(=O)C(C)(C)CO [Example 58, 2-((3-(6-amino-2-fluoropyridin-3-yl)-7-methoxyimidazo[1,2-a]pyridin-6-yl)sulfonyl)-2-methylpropan-1-ol]
Emax [1]: > 80%
IC50 [1]: > 20 nM
IC50 [2]: > 20 nM
IC50 [3]: > 1000 nM

CCCS(=O)(=O)Nc1cc(-c2cnc3cc(OC)c(S(=O)(=O)C(C)(C)CO)cn23)cc(OC)c1OC [Example 59, N-(5-(6-((1-hydroxy-2-methylpropan-2-yl)sulfonyl)-7-methoxyimidazo[1,2-a]pyridin-3-yl)-2,3-dimethoxyphenyl)propane-1-sulfonamide]
Emax [1]: > 80%
IC50 [1]: < 1 nM
IC50 [2]: < 1 nM
IC50 [3]: < 50 nM

COc1cc2ncc(-c3cc(F)c(N)nc3F)n2cc1S(=O)(=O)C(C)(C)CO [Example 60, 2-((3-(6-amino-2,5-difluoropyridin-3-yl)-7-methoxyimidazo[1,2-a]pyridin-6-yl)sulfonyl)-2-methylpropan-1-ol]
Emax [1]: > 80%
IC50 [1]: 2.5 to 20 nM
IC50 [2]: 2.5 to 20 nM
IC50 [3]: 250 to 1000 nM

COc1cc2ncc(-c3ccc(N)nc3F)n2cc1S(=O)(=O)CCCO [Example 61, 3-((3-(6-amino-2-fluoropyridin-3-yl)-7-methoxyimidazo[1,2-a]pyridin-6-yl)sulfonyl)propan-1-ol]
Emax [1]: > 80%
IC50 [1]: > 20 nM
IC50 [2]: > 20 nM
IC50 [3]: > 1000 nM

COc1cc2ncc(-c3cc(F)c(N)nc3F)n2cc1S(=O)(=O)C(C)(C)CCO [Example 62, 3-((3-(6-amino-2,5-difluoropyridin-3-yl)-7-methoxyimidazo[1,2-a]pyridin-6-yl)sulfonyl)-3-methylbutan-1-ol]
Emax [1]: > 80%
IC50 [1]: 2.5 to 20 nM
IC50 [2]: 2.5 to 20 nM
IC50 [3]: 250 to 1000 nM

COc1cc2ncc(-c3cc(F)c(N)nc3F)n2cc1S(=O)(=O)C(C)(C)CCCO [Example 63, 4-((3-(6-amino-2,5-difluoropyridin-3-yl)-7-methoxyimidazo[1,2-a]pyridin-6-yl)sulfonyl)-4-methylpentan-1-ol]
Emax [1]: > 80%
IC50 [1]: 2.5 to 20 nM
IC50 [2]: 2.5 to 20 nM
IC50 [3]: > 1000 nM

COc1cc2ncc(-c3cc(F)c(N)nc3F)n2cc1S(=O)(=O)C(C)(C)c1nc(C)no1 [Example 64, 3,6-difluoro-5-(7-methoxy-6-((2-(3-methyl-1,2,4-oxadiazol-5-yl)propan-2-yl)sulfonyl)imidazo[1,2-a]pyridin-3-yl)pyridin-2-amine]
Emax [1]: > 80%
IC50 [1]: > 20 nM
IC50 [2]: > 20 nM
IC50 [3]: > 1000 nM

COc1cc2ncc(-c3cc(F)c(N)nc3F)n2cc1S(=O)(=O)C(C)(C)Cn1cccn1 [Example 65, 3,6-difluoro-5-(7-methoxy-6-((2-methyl-1-(1H-pyrazol-1-yl)propan-2-yl)sulfonyl)imidazo[1,2-a]pyridin-3-yl)pyridin-2-amine]
Emax [1]: > 80%
IC50 [1]: > 20 nM
IC50 [2]: > 20 nM
IC50 [3]: > 1000 nM

COc1cc2ncc(-c3ccc(N)nc3F)n2cc1S(=O)(=O)C1CC1 [Example 66, 5-(6-(cyclopropylsulfonyl)-7-methoxyimidazo[1,2-a]pyridin-3-yl)-6-fluoropyridin-2-amine]
Emax [1]: > 80%
IC50 [1]: > 20 nM
IC50 [2]: > 20 nM
IC50 [3]: > 1000 nM

CCCS(=O)(=O)Nc1cc(-c2cnc3cc(OC)c(S(=O)(=O)C4(C)CC4)cn23)cc(OC)c1OC [Example 67, N-(2,3-dimethoxy-5-(7-methoxy-6-((1-methylcyclopropyl)sulfonyl)imidazo[1,2-a]pyridin-3-yl)phenyl)propane-1-sulfonamide]
Emax [1]: > 80%
IC50 [1]: < 1 nM
IC50 [2]: < 1 nM
IC50 [3]: < 50 nM

COc1cc2ncc(-c3cc(F)c(N)nc3F)n2cc1S(=O)(=O)C1(C)CC1 [Example 68, 3,6-difluoro-5-(7-methoxy-6-((1-methylcyclopropyl)sulfonyl)imidazo[1,2-a]pyridin-3-yl)pyridin-2-amine]
Emax [1]: > 80%
IC50 [1]: > 20 nM
IC50 [2]: > 20 nM
IC50 [3]: > 1000 nM

CCC(C)(C)S(=O)(=O)c1cn2c(-c3cc(F)c(N)nc3F)cnc2cc1OC [Example 69, 3,6-difluoro-5-(7-methoxy-6-(tert-pentylsulfonyl)imidazo[1,2-a]pyridin-3-yl)pyridin-2-amine]
Emax [1]: > 80%
IC50 [1]: 2.5 to 20 nM
IC50 [2]: 2.5 to 20 nM
IC50 [3]: 250 to 1000 nM

COc1cc2ncc(-c3cc(F)c(N)nc3F)n2cc1S(=O)(=O)C1(C)CCN(C(=O)OC(C)(C)C)CC1 [Example 70, tert-butyl 4-((3-(6-amino-2,5-difluoropyridin-3-yl)-7-methoxyimidazo[1,2-a]pyridin-6-yl)sulfonyl)-4-methylpiperidine-1-carboxylate]
Emax [1]: > 80%
IC50 [1]: > 20 nM
IC50 [2]: > 20 nM
IC50 [3]: > 1000 nM

COc1cc2ncc(-c3cc(F)c(N)nc3F)n2cc1S(=O)(=O)C1(C)CCNCC1 [Example 71, 3,6-difluoro-5-(7-methoxy-6-((4-methylpiperidin-4-yl)sulfonyl)imidazo[1,2-a]pyridin-3-yl)pyridin-2-amine]
Emax [1]: > 80%
IC50 [1]: 2.5 to 20 nM
IC50 [2]: 2.5 to 20 nM
IC50 [3]: > 1000 nM

Reference: US20260137706A1, “METHODS OF TREATING INFLAMMATORY DISEASES” (INTERLINE THERAPEUTICS, INC., priority 2023, published 2026)
